Assay results published in patent US20110165119A1, “TELAPREVIR DOSING REGIMEN” (priority 2008, published 2011).

What was measured:
HCV NS3-4A protease = target: T1, HCV NS3-4A protease (Hepatitis C virus genotype 1a, UniProt P27958); assay: in vitro potency against HCV NS3-4A protease; format: biochemical; settings: relative to telaprevir
T1 construct: against the HCV NS3-4A protease

[1] = in vivo; cited from earlier work

T1 sequence (P27958 1027-1657): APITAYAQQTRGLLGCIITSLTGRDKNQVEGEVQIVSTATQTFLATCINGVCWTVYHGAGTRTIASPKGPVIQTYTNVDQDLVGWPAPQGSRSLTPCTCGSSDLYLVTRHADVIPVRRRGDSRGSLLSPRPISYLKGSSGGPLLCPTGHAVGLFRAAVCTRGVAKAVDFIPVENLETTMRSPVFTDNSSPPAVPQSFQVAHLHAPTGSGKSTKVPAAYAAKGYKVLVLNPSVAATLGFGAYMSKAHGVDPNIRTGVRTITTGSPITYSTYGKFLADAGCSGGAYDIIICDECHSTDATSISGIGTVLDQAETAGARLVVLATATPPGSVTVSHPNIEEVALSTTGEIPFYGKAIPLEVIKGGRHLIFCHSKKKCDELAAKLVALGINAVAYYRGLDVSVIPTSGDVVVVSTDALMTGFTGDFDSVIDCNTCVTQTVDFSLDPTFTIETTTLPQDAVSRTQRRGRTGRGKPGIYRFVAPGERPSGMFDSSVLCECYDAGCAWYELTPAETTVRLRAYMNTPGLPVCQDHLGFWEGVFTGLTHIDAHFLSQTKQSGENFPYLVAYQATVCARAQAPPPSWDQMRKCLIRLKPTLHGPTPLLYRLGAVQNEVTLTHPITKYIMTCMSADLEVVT
T1 sequence (P27958 1658-1711): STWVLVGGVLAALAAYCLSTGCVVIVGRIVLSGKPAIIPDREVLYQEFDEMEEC

| times less potent than telaprevir against the HCV NS3-4A protease (HCV NS3-4A protease) | SMILES | oral bioavailability [1] |
| --- | --- | --- |
| about 30 times | CCCC(NC(=O)C1C2CCCC2CN1C(=O)C(NC(=O)C(NC(=O)c1cnccn1)C1CCCCC1)C(C)(C)C)C(=O)C(=O)NC1CC1 (single isomer, unassigned) [R-diastereisomer] |  |
|  | CCC[C@H](NC(=O)[C@@H]1[C@H]2CCC[C@H]2CN1C(=O)[C@@H](NC(=O)[C@@H](NC(=O)c1cnccn1)C1CCCCC1)C(C)(C)C)C(=O)C(=O)NC1CC1 (single isomer, unassigned) [Telaprevir] | orally bioavailable |
